Results reported in patent publication US10786582B2, “Gd(III)-dithiolane gold nanoparticle conjugates” (Northwestern University, priority 2015, dated 2020).

Assay: r1 relaxivity of dt-Gd(III) nanoconjugates, Bruker minispec 60 MHz
Type: physicochemical
Conditions: per Gd(III); 60 MHz (1.41 T), 37° C., water plus 0.01% tween 20
Method: A stock solution of backfilled dt-Gd(III) SNA conjugates was made (700 uL). This stock was serially diluted four times for a total of five solutions. Solutions were heated to 37° C. and two hundred μL of each concentration was placed into a Bruker minispec mq60 NMR spectrometer (60 MHz) for measurement of T1 relaxation time. Data were collected using an inversion recovery pulse sequence using 4 averages, a 15 s repetition time and 10 data points. The remaining volumes of each solution were utilized for ICP analysis of [Gd(III)]. The inverse of the longitudinal relaxation time (1/T1, s−1) was plotted versus the Gd(III) concentration (mM). […] Relaxivities of DNA-Gd@spheres, Gd(III)-DNA and complex 5 were collected by the analogous procedure (Table 3, FIG. 7).

Question: With “2,2′2″(10(3-(((1-(5-(1,2-dithiolan-3-yl)pentyl)-1,2,3-triazol-4-yl)methyl)amino)-3-oxopropyl)-1,4,7,10-tetraazacyclododecyl-gadolinium(III) complex [dt-Gd(III)]” as the substance, how does the r1 relaxivity ionic read?
Answer: 4.9 mM⁻¹ s⁻¹
